{"source": "patent US20230091225A1", "about": "“Bifunctional chimeric heterocyclic compounds for targeted degradation of androgen receptors and use thereof” (HINOVA PHARMACEUTICALS INC., priority 2019, published 2023)", "target": "T1, androgen receptor (AR) (Homo sapiens, UniProt P10275)", "T1 sequence (P10275 1-920)": "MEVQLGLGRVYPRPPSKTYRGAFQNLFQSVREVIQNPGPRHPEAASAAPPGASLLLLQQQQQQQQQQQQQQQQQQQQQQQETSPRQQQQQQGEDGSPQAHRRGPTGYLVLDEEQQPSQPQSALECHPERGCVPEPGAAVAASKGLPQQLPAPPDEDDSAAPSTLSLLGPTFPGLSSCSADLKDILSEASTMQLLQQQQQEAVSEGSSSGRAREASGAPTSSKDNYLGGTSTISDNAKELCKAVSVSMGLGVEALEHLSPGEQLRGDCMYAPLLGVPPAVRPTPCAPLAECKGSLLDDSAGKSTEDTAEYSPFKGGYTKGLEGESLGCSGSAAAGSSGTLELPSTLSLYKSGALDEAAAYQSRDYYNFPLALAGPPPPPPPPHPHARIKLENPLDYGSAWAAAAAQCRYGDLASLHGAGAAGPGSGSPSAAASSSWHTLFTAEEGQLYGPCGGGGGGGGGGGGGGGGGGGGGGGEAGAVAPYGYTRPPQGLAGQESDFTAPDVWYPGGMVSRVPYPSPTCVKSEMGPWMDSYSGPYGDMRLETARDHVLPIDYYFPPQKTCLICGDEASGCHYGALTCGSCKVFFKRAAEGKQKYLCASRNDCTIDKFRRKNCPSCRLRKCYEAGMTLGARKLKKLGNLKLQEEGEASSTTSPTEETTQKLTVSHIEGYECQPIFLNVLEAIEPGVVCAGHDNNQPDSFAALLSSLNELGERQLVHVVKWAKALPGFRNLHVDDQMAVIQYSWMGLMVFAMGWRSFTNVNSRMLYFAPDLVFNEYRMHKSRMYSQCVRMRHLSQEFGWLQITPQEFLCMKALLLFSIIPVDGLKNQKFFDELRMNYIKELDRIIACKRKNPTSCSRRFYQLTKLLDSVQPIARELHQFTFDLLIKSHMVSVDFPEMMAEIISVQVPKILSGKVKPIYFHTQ", "assay": "Degradation of androgen receptor (AR) protein in VCaP cells by Western blot", "assay_type": "cell-based", "conditions": "percentage of degraded AR at 100 nM, VCaP cells, 16 h", "protocol": "Determination of the Degradation Activity of the Compound on Androgen Receptor (AR) Protein by Western Blot\n1) VCaP cells were subcultured in cell culture media, and then the cells in good growth condition were seeded in a 12-well plate at 1 ml/well (5×10^5 cells/well), and cultured overnight in a 37° C., 5% CO2 cell incubator. 2) The test compound was prepared into a 10 mM stock solution with dimethyl sulfoxide (DMSO). Prior to use, the solution was diluted 3 times with DMSO. […] of the diluted compound solution was added to the cell culture well (ensuring that the DMSO concentration in the culture system was 0.1%), and two wells were set for each concentration. The plate was gently shaken to mix. In addition, the experiment included negative control wells (containing equal amount of DMSO) and positive control wells. 3) After culturing 16 h. the cells were lysed with RIPA cell lysate, and the protein was extracted. The protein concentration was measured with BCA kit. 5-fold concentrated protein loading buffer was added, and after heated at 100° C. for 5 min. the sample was stored at −20° C. 4) for each well, 30 μg of protein was loaded on polyacrylamide gel for electrophoresis. 5) The protein was transferred from polyacrylamide gel to PVDF membrane, and then 5% skim milk was added to close for 1 h at room temperature. The first antibody (Androgen Receptor (D6F11) XP Rabbit mAb and Anti-β-Actin Rabbit mAb) was added and incubated overnight at 4° C. The membrane was washed with TBST solution three times. 10 min for each time. The secondary antibody (horseradish peroxidase labeled goat […]) was added and incubated at room temperature for 2 h, and then the membrane was washed with TBST solution three times. 10 min for each time.\nFinally, ECL chemiluminescence solution was added, and then photos were taken with automatic chemiluminescence instrument to collect pictures for analysis."}
{"smiles": "N#Cc1ccc(OC2C[C@@H]3CN(C(=O)c4cnc(N5CCC(CN6CCN(c7ccc8c(c7)C(=O)N(C7CCC(=O)NC7=O)C8=O)CC6)CC5)cn4)C[C@@H]3C2)cc1Cl", "note": "(stereo partly drawn) [Compound 174, 2-chloro-4-(((3aR,5r,6aS)-2-(5-(4-((4-(2-(2,6-dioxopiperidin-3-yl)-1,3-dioxoisoindolin-5-yl)piperazin-1-yl)methyl)piperidin-1-yl)pyrazine-2-carbonyl)octahydrocyclopenta[c]pyrrol-5-yl)oxy)benzonitrile]", "values": [{"measurement": "inhibition at 0.1 µM", "result": "< 25", "unit": "%"}]}
{"smiles": "N#Cc1ccc(O[C@H]2CC[C@H](NC(=O)c3ccc(N4CCN([C@@H]5C[C@@H]6CN(c7ccc8c(c7)C(=O)N(C7CCC(=O)NC7=O)C8=O)C[C@@H]6C5)CC4)nn3)CC2)cc1Cl", "note": "(stereo partly drawn) [Compound 298, N-((1r,4r)-4-(3-chloro-4-cyanophenoxy)cyclohexyl)-6-(4-((3aR,5R,6aS)-2-(2-(2,6-dioxopiperidin-3-yl)-1,3-dioxoisoindolin-5-yl)octahydrocyclopenta[c]pyrrol-5-yl)piperazin-1-yl)pyridazine-3-formamide]", "values": [{"measurement": "inhibition at 0.1 µM", "result": "< 25", "unit": "%"}]}
{"smiles": "N#Cc1ccc(O[C@H]2CC[C@H](NC(=O)c3cnc(N4C[C@@H]5[C@@H](CN6CCN(c7cc8c(cc7F)C(=O)N(C7CCC(=O)NC7=O)C8=O)CC6)[C@@H]5C4)cn3)CC2)cc1Cl", "note": "(stereo partly drawn) [Compound 176, N-((1r,4R)-4-(3-chloro-4-cyanophenoxy)cyclohexyl)-5-((1R,5S,6S)-6-((4-(2-(2,6-dioxopiperidin-3-yl)-6-fluoro-1,3-dioxoisoindolin-5-yl)piperazin-1-yl)methyl)-3-azabicyclo[3.1.0]hexan-3-yl)pyrazine-2-carboxamide]", "values": [{"measurement": "inhibition at 0.1 µM", "result": "50 to 79", "unit": "%"}]}
{"smiles": "N#Cc1ccc(OC2CC3(C2)CN(C(=O)c2ccc(N4CCC(CN5CCN(c6ccc7c(c6)C(=O)N(C6CCC(=O)NC6=O)C7=O)CC5)CC4)nn2)C3)cc1Cl", "note": "(centres unmarked) [Compound 120, 2-chloro-4-((2-(6-(4-((4-(2-(2,6-dioxopiperidin-3-yl)-1,3-dioxoisoindolin-5-yl)piperazin-1-yl)methyl)piperidin-1-yl)pyridazine-3-carbonyl)-2-azaspiro[3.3]heptan-6-yl)oxy)benzonitrile]", "values": [{"measurement": "inhibition at 0.1 µM", "result": "< 25", "unit": "%"}]}
{"smiles": "N#Cc1ccc(O[C@H]2CC[C@H](NC(=O)c3ccc(N4CC5CN(CC6CN(c7cc8c(cc7F)C(=O)N(C7CCC(=O)NC7=O)C8=O)C6)CC5C4)nn3)CC2)cc1Cl", "note": "(some centres unmarked) [Compound 160]", "values": [{"measurement": "inhibition at 0.1 µM", "result": "< 25", "unit": "%"}]}
{"smiles": "N#Cc1ccc(O[C@H]2CC[C@H](NC(=O)c3ccc(N4CC5CN(CC6CCN(c7ccc8c(c7)C(=O)N(C7CCC(=O)NC7=O)C8=O)CC6)CC5C4)nn3)CC2)cc1Cl", "note": "(some centres unmarked) [Compound 260, N-((1r,4r)-4-(3-chloro-4-cyanophenoxy)cyclohexyl)-6-(5-((1-(2-(2,6-dioxopiperidin-3-yl)-1,3-dioxoisoindolin-5-yl)piperidine-4-yl)methyl)hexahydropyrrolo[3,4-c]pyrrol-2(1Ji)-yl)pyridazine-3-carboxamide]", "values": [{"measurement": "inhibition at 0.1 µM", "result": "> 80", "unit": "%"}]}
{"smiles": "N#Cc1ccc(O[C@H]2CC[C@H](NC(=O)c3cnc(N4CCC(CN5CCC(Nc6ccc7c(c6)C(=O)N(C6CCC(=O)NC6=O)C7=O)CC5)CC4)cn3)CC2)cc1Cl", "note": "(some centres unmarked) [Compound 146]", "values": [{"measurement": "inhibition at 0.1 µM", "result": "> 80", "unit": "%"}]}
{"smiles": "CC1(C)[C@H](Oc2ccc(C#N)c(Cl)c2)C(C)(C)[C@H]1N1Cc2nc(C#CC3CN(C4CCN(c5ccc6c(c5)C(=O)N(C5CCC(=O)NC5=O)C6=O)CC4)C3)ccc2C1=O", "note": "(some centres unmarked) [Compound 319, 2-Chloro-4-((1r,3r)-3-(2-((1-(1-(2-(2,6-dioxopiperidin-3-yl)-1,3-dioxoisoindolin-5-yl)piperidine-4-yl)azelaic acid-3-yl)ethynyl)-5-oxo-5H-pyrrolo[3,4-b]pyridin-6(7H)-yl)-2,2,4,4-tetramethylcyclobutoxy)benzonitrile]", "values": [{"measurement": "inhibition at 0.1 µM", "result": "< 25", "unit": "%"}]}
{"smiles": "N#Cc1ccc(O[C@H]2CC[C@H](NC(=O)c3nnc(N4CC5(CCN(CC6CCN(c7ccc8c(c7)C(=O)N(C7CCC(=O)NC7=O)C8=O)CC6)CC5)C4)s3)CC2)cc1Cl", "note": "(some centres unmarked) [Compound 105, N-((1r,4r)-4-(3-chloro-4-cyanophenoxy)cyclohexyl)-5-(7-((1-(2-(2,6-dioxopiperidin-3-yl)-1,3-dioxoisoindolin-5-yl)piperidine-4-yl)methyl)-2,7-diazaspiro[3.5]nonan-2-yl)-1,3,4-thiadiazole-2-carboxamide]", "values": [{"measurement": "inhibition at 0.1 µM", "result": "50 to 79", "unit": "%"}]}
{"smiles": "CC1(C)[C@H](Oc2ccc(C#N)c(Cl)c2)C(C)(C)[C@H]1N1Cc2nc(C#CC3CC(NC4CCN(c5cc6c(cc5F)C(=O)N(C5CCC(=O)NC5=O)C6=O)CC4)C3)ccc2C1=O", "note": "(some centres unmarked) [Compound 329]", "values": [{"measurement": "inhibition at 0.1 µM", "result": "50 to 79", "unit": "%"}]}
{"smiles": "N#Cc1ccc(O[C@H]2CC[C@H](NC(=O)c3cnc(N4CCC5(CC4)CN(C4CCN(c6cc7c(cc6F)C(=O)N(C6CCC(=O)NC6=O)C7=O)CC4)C5)cn3)CC2)cc1Cl", "note": "(some centres unmarked) [Compound 289]", "values": [{"measurement": "inhibition at 0.1 µM", "result": "> 80", "unit": "%"}]}
{"smiles": "N#Cc1ccc(O[C@H]2CC[C@H](NC(=O)c3ccc(N4C[C@H]5C[C@@H](CN6CCN(c7cc8c(cc7F)C(=O)N(C7CCC(=O)NC7=O)C8=O)CC6)C[C@H]5C4)nn3)CC2)cc1Cl", "note": "(stereo partly drawn) [Compound 224, N-((1r,4r)-4-(3-chloro-4-cyanophenoxy)cyclohexyl)-6-((3aR,5R,6aS)-5-((4-(2-(2,6-dioxopiperidin-3-yl)-6-fluoro-1,3-dioxoisoindolin-5-yl)piperazin-1-yl)methyl)hexahydrocyclopenta[c]pyrrole-2(1H)-yl)pyridazine-3-formamide]", "values": [{"measurement": "inhibition at 0.1 µM", "result": "50 to 79", "unit": "%"}]}
{"smiles": "N#Cc1ccc(O[C@H]2CC[C@H](NC(=O)c3ccc(N4CCC(N5CC6(CCN(c7cc8c(cc7F)C(=O)N(C7CCC(=O)NC7=O)C8=O)CC6)C5)CC4)nn3)CC2)cc1Cl", "note": "(stereo partly drawn) [Compound 61, N-((1R,4R)-4-(3-chloro-4-cyanophenoxy)cyclohexyl)-6-(4-(7-(2-(2,6-dioxopiperidin-3-yl)-6-fluoro-1,3-dioxoisoindolin-5-yl)-2,7-diazaspiro[3.5]nonyl-2-yl)piperidin-1-yl)pyridazine-3-carboxamide]", "values": [{"measurement": "inhibition at 0.1 µM", "result": "> 80", "unit": "%"}]}
{"smiles": "N#Cc1ccc(O[C@H]2CC[C@H](NC(=O)c3cnc(N4CC5CN(CC6CCN(c7cc8c(cc7F)C(=O)N(C7CCC(=O)NC7=O)C8=O)CC6)CC5C4)cn3)CC2)cc1Cl", "note": "(some centres unmarked) [Compound 157]", "values": [{"measurement": "inhibition at 0.1 µM", "result": "> 80", "unit": "%"}]}
{"smiles": "N#Cc1ccc(O[C@H]2CC[C@H](NC(=O)c3cnc(N4CC(N5CC6CN(c7cc8c(cc7F)C(=O)N(C7CCC(=O)NC7=O)C8=O)CC6C5)C4)cn3)CC2)cc1Cl", "note": "(some centres unmarked) [Compound 225, N-((1r,4r)-4-(3-chloro-4-cyanophenoxy)cyclohexyl)-5-(3-(5-(2-(2,6-dioxopiperidin-3-yl)-6-fluoro-1,3-dioxoisoindolin-5-yl)hexahydropyrrolo[3,4-c]pyrrol-2(1H)-yl)azitidin-1-yl)pyrazine-2-carboxamide]", "values": [{"measurement": "inhibition at 0.1 µM", "result": "50 to 79", "unit": "%"}]}
{"smiles": "N#Cc1ccc(O[C@H]2CC[C@H](NC(=O)c3ccc(N4CCN([C@@H]5C[C@@H]6CN(c7cc8c(cc7F)C(=O)N(C7CCC(=O)NC7=O)C8=O)C[C@@H]6C5)CC4)nn3)CC2)cc1Cl", "note": "(stereo partly drawn) [Compound 297, N-((1r,4r)-4-(3-chloro-4-cyanophenoxy)cyclohexyl)-6-(4-((3aR,5R,6aS)-2-(2-(2,6-dioxopiperidin-3-yl)-6-fluoro-1,3-dioxoisoindolin-5-yl)octahydrocyclopenta[c]pyrrol-5-yl)piperazin-1-yl)pyridazine-3-formamide]", "values": [{"measurement": "inhibition at 0.1 µM", "result": "25 to 49", "unit": "%"}]}
{"smiles": "CN(C1CCN(c2ccc3c(c2)C(=O)N(C2CCC(=O)NC2=O)C3=O)CC1)C1CC(C#Cc2ccc3c(n2)CN([C@H]2C(C)(C)[C@H](Oc4ccc(C#N)c(Cl)c4)C2(C)C)C3=O)C1", "note": "(some centres unmarked) [Compound 331]", "values": [{"measurement": "inhibition at 0.1 µM", "result": "25 to 49", "unit": "%"}]}
